The values below are quoted from earlier work in patent US20210353546A1, “DUAL RELEASE PHARMACEUTICAL COMPOSITIONS COMPRISING THE COMBINATION OF A BETA-3 ADRENORECEPTOR AGONIST AND A MUSCARINIC RECEPTOR ANTAGONIST” (Jubilant Pharma Holdings Inc., priority 2020, published 2021).

Like-named read-outs stand apart in the source and are kept apart here.

Experiment in series [1]: not given
This is another data set of the same source.

Consider `Nc1nc(CC(=O)Nc2ccc(CCNC[C@H](O)c3ccccc3)cc2)cs1` [Mirabegron, 2-(2-aminothiazol-4-yl)-N-[4-(2-{[(2R)-2-hydroxy2-phenylethyl]amino}ethyl)phenyl] acetamide], for which the Solubility result is “soluble” (in dimethyl sulfoxide), “soluble” (in methanol) and “practically insoluble” (in water). Further, the half-life result in series [1] (in vivo) is listed as “approximately 50 hours”. For the same compound, the “bioavailability, food effect” value in series [1] (presence of food in the Gastrointestinal Tract) is listed as “affected by the presence of food”.
